In brackets after ≈: the same amount, converted by molar mass.
Columns and labels:
Test in all cases: ≥ marks a high value that may be exact or a test limit, other limits are often not marked, values filed in µg/mL are converted to µM
[1] = test system: Staphylococcus aureus ATCC 25293
[2] = test system: Salmonella enterica subsp. enterica serovar Newport
[3] = test system: Bacillus megaterium ATCC 17749
Fusarium oxysporum = test system: Fusarium oxysporum
[4] = test system: Micrococcus luteus ATCC 4698
[5] = test system: Staphylococcus epidermidis ATCC 12228
[6] = test system: Escherichia coli 363 ATCC 11775
[7] = test system: Vibrio metschnikovii NCTC 8483
[8] = test system: Vibrio alginolyticus ATCC 17749
Candida sp. = test system: Candida sp.
[9] = test system: Klebsiella pneumoniae ATCC 10031
[10] = test system: Pseudomonas aeruginosa ATCC 9027
Pseudomonas putida = test system: Pseudomonas putida
Saccharomyces cerevisiae = test system: Saccharomyces cerevisiae
[11] = test system: Shigella dysenteriae ATCC 9752
Escherichia coli = test system: Escherichia coli
[12] = test system: Escherichia coli DH5alpha
[13] = test system: Proteus mirabilis ATCC 25933
[14] = test system: Salmonella enterica subsp. enterica serovar Typhimurium ATCC 14028
Serratia marcescens = test system: Serratia marcescens
Candida albicans = test system: Candida albicans
[15] = test system: Bacillus subtilis KCTC 1021
[16] = test system: Listeria monocytogenes BCRC 14845
Streptococcus iniae = test system: Streptococcus iniae
[17] = test system: Streptococcus equinus BCRC 14729
[18] = test system: Klebsiella oxytoca BCRC 13985
Vibrio harveyi = test system: Vibrio harveyi
[19] = test system: Klebsiella aerogenes BCRC 10370
[20] = test system: Vibrio parahaemolyticus BCRC 10806
Lactococcus garvieae = test system: Lactococcus garvieae
[21] = test system: Staphylococcus xylosus BCRC 12930
Vibrio parahaemolyticus = test system: Vibrio parahaemolyticus
[22] = test system: Staphylococcus aureus BCRC 10781
[23] = test system: Vibrio alginolyticus BCRC 12829
[24] = test system: Vibrio anguillarum serotype O1
[25] = test system: Pseudomonas aeruginosa BCRC 10944
[26] = test system: Escherichia coli BCRC 10675
Vibrio alginolyticus = test system: Vibrio alginolyticus
[27] = test system: Staphylococcus aureus BCRC 10780
[28] = test system: Yersinia enterocolitica BCRC 13999
[29] = test system: Enterobacter cloacae BCRC 10401
[30] = test system: Trypanosoma brucei brucei GUT Tat3.1
[31] = test system: Staphylococcus aureus ATCC 6538P
[32] = test system: Staphylococcus aureus KO-4
[33] = test system: Trichophyton mentagrophytes IFO 5466
Escherichia coli JM109 = test system: Escherichia coli JM109
Staphylococcus aureus = test system: Staphylococcus aureus
Pseudomonas aeruginosa = test system: Pseudomonas aeruginosa
[34] = test system: Escherichia coli NCTC 12923
Escherichia coli LEC001 = test system: Escherichia coli LEC001
[35] = test system: Klebsiella pneumoniae NCTC 13368
[36] = test system: Pseudomonas aeruginosa NCTC 13437
[37] = test system: Pseudomonas aeruginosa PAO1
[38] = test system: Acinetobacter baumannii AYE
[39] = test system: Acinetobacter baumannii ATCC 17978
[40] = test system: Staphylococcus aureus ATCC 9144
[41] = test system: Staphylococcus aureus USA 300

CC(C)C[C@@H]1NC(=O)[C@H](CCCN=C(N)N)NC(=O)[C@H](Cc2cnc[nH]2)NC(=O)[C@H](Cc2c[nH]c3ccccc23)NC(=O)CNC(=O)CNC(=O)[C@@H](N)CSSC[C@@H](C(=O)O)NC(=O)[C@H](CCCN=C(N)N)NC1=O [CGGWHRLRC]
MIC [1]: ≥ 49 µM
MIC [2]: ≥ 75 µM
MIC [3]: ≥ 51 µM
MIC (Fusarium oxysporum): 30 µM (≈ 32.6 µg/mL)
MIC [4]: 28 µM (≈ 30.4 µg/mL)
MIC [5]: 43 µM (≈ 46.7 µg/mL)
MIC [6]: ≥ 75 µM
MIC [7]: ≥ 75 µM
MIC [8]: ≥ 75 µM
MIC (Candida sp.): ≥ 59 µM

CC[C@H](C)[C@@H]1NC(=O)[C@H](CCCCN)NC(=O)[C@@H](NC(=O)[C@@H](NC(=O)[C@@H](NC(=O)[C@@H](NC(=O)[C@@H]2CCCN2C(=O)[C@H](CC(C)C)NC(=O)[C@H](Cc2ccccc2)NC(=O)[C@H](CC(N)=O)NC(=O)[C@H](C)NC(=O)[C@H](C)NC(=O)[C@H](CC(C)C)NC(=O)CNC(=O)[C@H](C)NC(=O)[C@H](CC(C)C)NC(=O)[C@H](CC(C)C)NC(=O)[C@@H]2CCCN2C(=O)[C@H](CC(C)C)NC(=O)[C@@H](N)Cc2ccccc2)[C@@H](C)O)[C@@H](C)CC)[C@@H](C)CC)CSSC[C@@H](C(=O)O)NC(=O)[C@H](CCCCN)NC(=O)[C@H](Cc2ccc(O)cc2)NC(=O)[C@H](CO)NC1=O [FLPLLAGLAANFLPTIICKISYKC]
MIC [9]: 9.58 µM (≈ 25 µg/mL)
MIC [10]: 57.5 µM (≈ 150 µg/mL)
MIC (Pseudomonas putida): ≥ 57.5 µM
MIC (Saccharomyces cerevisiae): 19.2 µM (≈ 50 µg/mL)
MIC [4]: 0.958 µM (≈ 2.5 µg/mL)
MIC [11]: 19.2 µM (≈ 50 µg/mL)
MIC (Escherichia coli): 38.3 µM (≈ 99.9 µg/mL)
MIC [12]: 9.58 µM (≈ 25 µg/mL)
MIC [5]: 3.83 µM (≈ 9.99 µg/mL)
MIC [13]: ≥ 76.6 µM
MIC [14]: 19.2 µM (≈ 50 µg/mL)
MIC (Serratia marcescens): ≥ 76.6 µM
MIC (Candida albicans): 19.2 µM (≈ 50 µg/mL)
MIC [15]: 3.83 µM (≈ 9.99 µg/mL)

CC[C@H](C)[C@H](NC(=O)[C@H](Cc1ccc(O)cc1)NC(=O)[C@H](CCCCN)NC(=O)[C@H](Cc1ccc(O)cc1)NC(=O)[C@H](Cc1ccccc1)NC(=O)[C@H](CC(N)=O)NC(=O)[C@H](Cc1ccc(O)cc1)NC(=O)[C@@H](NC(=O)[C@H](Cc1ccc(O)cc1)NC(=O)[C@H](CCCCN)NC(=O)[C@H](C)NC(=O)[C@H](Cc1ccc(O)cc1)NC(=O)[C@H](CCCCN)NC(=O)[C@H](C)NC(=O)CN)[C@@H](C)CC)C(=O)N[C@@H](C)C(=O)N[C@@H](CCCCN)C(=O)N[C@@H](Cc1ccc(O)cc1)C(=O)N[C@H](C(=O)N[C@@H](Cc1c[nH]c2ccccc12)C(=O)O)[C@@H](C)CC [GAKYAKYIYNFYKYIAKYIW]
MIC [16]: ≥ 49.9 µM
MIC (Streptococcus iniae): ≥ 49.9 µM
MIC [17]: ≥ 49.9 µM
MIC [18]: ≥ 49.9 µM
MIC (Vibrio harveyi): 24.9 µM (≈ 64 µg/mL)
MIC [19]: 24.9 µM (≈ 64 µg/mL)
MIC [20]: 24.9 µM (≈ 64 µg/mL)
MIC (Lactococcus garvieae): ≥ 99.7 µM
MIC [21]: 24.9 µM (≈ 64 µg/mL)
MIC (Vibrio parahaemolyticus): 24.9 µM (≈ 64 µg/mL)
MIC [22]: ≥ 49.9 µM
MIC [23]: 24.9 µM (≈ 64 µg/mL)
MIC [24]: ≥ 49.9 µM
MIC [25]: 24.9 µM (≈ 64 µg/mL)
MIC [26]: 24.9 µM (≈ 64 µg/mL)
MIC (Vibrio alginolyticus): 24.9 µM (≈ 64 µg/mL)
MIC [27]: ≥ 49.9 µM
MIC [28]: ≥ 99.7 µM
MIC [29]: 24.9 µM (≈ 64 µg/mL)

CC[C@H](C)[C@H](NC(=O)[C@H](C)NC(=O)[C@H](CC(C)C)NC(=O)[C@H](Cc1ccc(O)cc1)NC(=O)[C@H](CC(C)C)NC(=O)[C@H](C)N)C(=O)N[C@@H](CCCN=C(N)N)C(=O)N[C@@H](CCCN=C(N)N)C(=O)N[C@@H](CCCN=C(N)N)C(N)=O [ALYLAIRRR]
MIC [30]: ≥ 125 µM
MIC [31]: 1.33 µM (≈ 1.5 µg/mL)
MIC [32]: ≥ 530 µM
MIC [33]: ≥ 53 µM
MIC (Escherichia coli JM109): 2.65 µM (≈ 3 µg/mL)
MIC (Staphylococcus aureus): 21.2 µM (≈ 24 µg/mL)
MIC (Pseudomonas aeruginosa): 354 µM (≈ 400 µg/mL)

CC[C@H](C)[C@H](NC(=O)CNC(=O)[C@H](CO)NC(=O)[C@@H](N)Cc1c[nH]c2ccccc12)C(=O)N[C@@H](CCCN=C(N)N)C(=O)NCC(=O)N[C@@H](Cc1ccc(O)cc1)C(=O)N[C@@H](CCCCN)C(=O)NCC(=O)NCC(=O)N[C@@H](Cc1ccc(O)cc1)C(=O)N[C@@H](CCCCN)C(=O)NCC(=O)N[C@@H](CC(C)C)C(=O)N[C@@H](Cc1ccccc1)C(=O)N[C@@H](CCCCN)C(=O)N[C@@H](CCC(N)=O)C(=O)N[C@H](C(=O)N[C@@H](CC(N)=O)C(=O)N[C@@H](Cc1ccc(O)cc1)C(N)=O)[C@@H](C)O [WSGIRGYKGGYKGLFKQTNY]
MIC [34]: ≥ 55.1 µM
MIC (Escherichia coli LEC001): ≥ 55.1 µM
MIC [35]: ≥ 55.1 µM
MIC [36]: ≥ 55.1 µM
MIC [37]: > 55.1 µM
MIC [38]: ≥ 55.1 µM
MIC [39]: ≥ 55.1 µM
MIC [40]: ≥ 55.1 µM
MIC [41]: ≥ 55.1 µM

— DBAASP
